Test results taken from patent US9133115B2 (ACHILLION PHARMACEUTICALS, INC., priority 2008, dated 2015).

test system: HCV replicon; assay: HCV replicon replication assay (NPT ELISA) in Huh-7 replicon-containing cells; assay type: cell-based; conditions: Hepatitis C virus, 72 h; HCV replicon in Huh-7 cells, three days incubation; read-out: EC50
How it was run: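 Replication was scored by capture ELISA of neomycin phosphotransferase, whose level tracks replicon replication, after graded compound treatment. The cells were Huh-7 harbouring an HCV-IRES/neo/EMCV-IRES/NS3–NS5B/3′-NTR replicon, plated at 6000-7500 cells/well and dosed 24 h later at 60-70% confluence; interferon alpha was the positive control.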

Row | Structure (SMILES) | EC50 [µM]
1 | C=C[C@@H]1C[C@]1(NC(=O)[C@@H]1C[C@@H](Oc2cc(-c3ccccc3)nc3cc(OC)ccc23)CN1C(=O)[C@@H](CC(=O)N1CCCCC1c1nc2cc(F)ccc2[nH]1)C(C)(C)C)C(=O)NS(=O)(=O)C1CC1 (stereo partly drawn) [Compound 125, (2S,4R)-1-((2S)-2-tert-butyl-4-(2-(5-fluoro-1H-benzo[d]imidazol-2-yl)piperidin-1-yl)-4-oxobutanoyl)-N-((1R,2S)-1-(cyclo-propylsulfonyl-carbamoyl)-2-vinylcyclopropyl)-4-(7-methoxy-2-phenylquinolin-4-yloxy)pyrrolidine-2-carboxamide] | < 1
2 | C=C[C@@H]1C[C@]1(NC(=O)[C@@H]1C[C@@H](Oc2cc(-c3ccccc3)nc3cc(OC)ccc23)CN1C(=O)[C@@H](CC(=O)n1c(C2CCCCN2)nc2cc(F)ccc21)C(C)(C)C)C(=O)NS(=O)(=O)C1CC1 (stereo partly drawn) [Compound 126, (2S,4R)-1-((2S)-2-tert-butyl-4-(5-fluoro-2-(piperidin-2-yl)-1H-benzo[d]imidazol-1-yl)-4-oxobutanoyl)-N-((1R,2S)-1-(cyclo-propylsulfonyl-carbamoyl)-2-vinylcyclopropyl)-4-(7-methoxy-2-phenylquinolin-4-yloxy)pyrrolidine-2-carboxamide] | < 1
3 | CC(C)(C)[C@H](CC(=O)N1CCCCC1)C(=O)N1C[C@H](n2cnc3ccccc32)C[C@H]1C(=O)NCC(=O)NS(=O)(=O)C1CC1 [Compound 127, (2S,4R)-4-(1H-benzo[d]imidazol-1-yl)-1-((S)-2-tert-butyl-4-oxo-4-(piperidin-1-yl)butanoyl)-N-(2-(cyclopropane-sulfonamido)-2-oxoethyl)pyr-rolidine-2-carboxamide] | 1 to 10
4 | C=C[C@@H]1C[C@]1(NC(=O)[C@@H]1C[C@@H](n2nnc(-c3ccccc3)c2-c2ccccc2)CN1C(=O)[C@@H](CC(=O)N1CCCCC1)C(C)(C)C)C(=O)NS(=O)(=O)C1CC1 [Compound 128, (2S,4R)-1-((S)-2-tert-butyl-4-oxo-4-(piperidin-1-yl)butanoyl)-N-((1R,2S)-1-(cyclo-propylsulfonyl-carbamoyl)-2-vinylcyclopropyl)-4-(4,5-diphenyl-1H-1,2,3-triazol-1-yl)pyrrolidine-2-carboxamide] | 1 to 10
5 | C=C[C@@H]1C[C@]1(NC(=O)[C@@H]1C[C@@H](OC(=O)N(c2ccccc2)c2ccccc2)CN1C(=O)[C@@H](CC(=O)N1CCCCC1)C(C)(C)C)C(=O)NS(=O)(=O)C1CC1 [Compound 129, (3R,5S)-1-((S)-2-tert-butyl-4-oxo-4-(piperidin-1-yl)butanoyl)-5-((1R,2S)-1-(cyclopropylsulfon-ylcarbamoyl)-2-vinylcyclopropyl-carbamoyl)pyr-rolidin-3-yl diphenylcarbamate] | 1 to 10
6 | C=C[C@@H]1C[C@]1(NC(=O)[C@@H]1C[C@@H](OC(=O)N2c3ccccc3CCc3ccccc32)CN1C(=O)[C@@H](CC(=O)N1CCCCC1)C(C)(C)C)C(=O)NS(=O)(=O)C1CC1 [Compound 130, (3R,5S)-1-((S)-2-tert-butyl-4-oxo-4-(piperidin-1-yl)butanoyl)-5-((1R,2S)-1-(cyclo-propylsulfonyl-carbamoyl)-2-vinyl-cyclopropylcarbamo-yl)pyrrolidin-3-yl 10,11-dihydro-5H-dibenzo[b,f]azepine-5-carboxylate] | 1 to 10
7 | C=C[C@@H]1C[C@]1(NC(=O)[C@@H]1C[C@@H](OC(=O)N2c3ccccc3C=Cc3ccccc32)CN1C(=O)[C@@H](CC(=O)N1CCCCC1)C(C)(C)C)C(=O)NS(=O)(=O)C1CC1 [Compound 131, (Z)-((3R,5S)-1-((S)-2-tert-butyl-4-oxo-4-(piperidin-1-yl)butanoyl)-5-((1R,2S)-1-(cyclopropylsulfon-ylcarbamoyl)-2-vinylcyclopropyl-carbamoyl)pyr-rolidin-3-yl)5H-dibenzo[b,f]azepine-5-carboxylate] | 1 to 10
8 | C=C[C@@H]1C[C@]1(NC(=O)[C@@H]1C[C@H](Oc2cc(-c3ccccc3)nc3cc(OC)ccc23)CN1C(=O)[C@@H](CC(=O)N1CCCCC1)C(C)(C)C)C(=O)NS(=O)(=O)C1CC1 [Compound 132, (2S,4S)-1-((S)-2-tert-butyl-4-oxo-4-(piperidin-1-yl)butanoyl)-N-((1R,2S)-1-(cyclo-propylsulfonyl-carbamoyl)-2-vinylcyclopropyl)-4-(7-methoxy-2-phenylquinolin-4-yloxy)pyrrolidine-2-carboxamide] | < 1
9 | C=C[C@@H]1C[C@]1(NC(=O)[C@@H]1C[C@@H](Oc2nc3ccccc3nc2-c2ccccc2)CN1C(=O)[C@@H](CC(=O)N1CCCCC1)C(C)(C)C)C(=O)NS(=O)(=O)C1CC1 [Compound 133, (2S,4R)-1-((S)-2-tert-butyl-4-oxo-4-(piperidin-1-yl)butanoyl)-N-((1R,2S)-1-(cyclo-propylsulfonyl-carbamoyl)-2-vinyl-cyclopropyl)-4-(3-phenylquinoxalin-2-yloxy)pyrrolidine-2-carboxamide] | 1 to 10
10 | C=C[C@@H]1C[C@]1(NC(=O)[C@@H]1C[C@@H](Oc2cc(-c3ccccc3)nc3cc(OC)ccc23)CN1C(=O)[C@H](CC(=O)N1CCCCC1)C(C)(C)C)C(=O)NS(=O)(=O)C1CC1 [Compound 134, (2S,4R)-1-((R)-2-tert-butyl-4-oxo-4-(piperidin-1-yl)butanoyl)-N-((1R,2S)-1-(cyclo-propylsulfonyl-carbamoyl)-2-vinylcyclopropyl)-4-(7-methoxy-2-phenylquinolin-4-yloxy)pyrrolidine-2-carboxamide] | 1 to 10
11 | C=C[C@@H]1C[C@]1(NC(=O)[C@@H]1C[C@@H](Oc2cc(-c3ccccc3)nc3cc(OC)ccc23)CN1C(=O)[C@@H](CC(=O)N1CCCCC1)C(C)(C)C)C(=O)NS(=O)(=O)C(C)CC (stereo partly drawn) [Compound 135, (2S,4R)-1-((S)-2-tert-butyl-4-oxo-4-(piperidin-1-yl)butanoyl)-N-((1R,2S)-1-(sec-butylsulfonyl-carbamoyl)-2-vinylcyclopropyl)-4-(7-methoxy-2-phenylquinolin-4-yloxy)pyrrolidine-2-carboxamide] | < 1
12 | C=C[C@@H]1C[C@]1(NC(=O)[C@@H]1C[C@@H](Oc2cc(-c3ccccc3)nc3cc(OC)ccc23)CN1C(=O)[C@@H](CC(=O)N1CCCCC1)C(C)(C)C)C(=O)NS(=O)(=O)CCC [Compound 136, (2S,4R)-1-((S)-2-tert-butyl-4-oxo-4-(piperidin-1-yl)butanoyl)-4-(7-methoxy-2-phenylquinolin-4-yloxy)-N-((1R,2S)-1-(propylsulfonyl-carbamoyl)-2-vinyl-cyclopropyl)pyr-rolidine-2-carboxamide] | < 1
13 | C=C[C@@H]1C[C@]1(NC(=O)[C@@H]1C[C@@H](Oc2cc(-c3csc(N(C)C)n3)nc3cc(OC)ccc23)CN1C(=O)[C@@H](CC(=O)N1CCCCC1)C(C)(C)C)C(=O)NS(=O)(=O)C1CC1 [Compound 137, (2S,4R)-1-((S)-2-tert-butyl-4-oxo-4-(piperidin-1-yl)butanoyl)-N-((1R,2S)-1-(cyclo-propylsulfonyl-carbamoyl)-2-vinylcyclopropyl)-4-(2-(2-(dimethyl-amino)thiazol-4-yl)-7-methoxyquinolin-4-yloxy)pyrrolidine-2-carboxamide] | < 1
14 | C=C[C@@H]1C[C@]1(NC(=O)[C@@H]1C[C@@H](Oc2cc(-c3csc(N(C)C)n3)nc3cc(OC)ccc23)CN1C(=O)[C@@H](CC(=O)N1CCOCC1)C(C)(C)C)C(=O)NS(=O)(=O)C1CC1 [Compound 138, (2S,4R)-1-((S)-2-tert-butyl-4-morpholino-4-oxobutanoyl)-N-((1R,2S)-1-(cyclo-propylsulfonyl-carbamoyl)-2-vinyl-cyclopropyl)-4-(2-(2-(dimethylamino)thiazol-4-yl)-7-methoxyquinolin-4-yloxy)pyrrolidine-2-carboxamide] | < 1
15 | C=C[C@@H]1C[C@]1(NC(=O)[C@@H]1C[C@@H](n2nc(-c3ccccc3)c(-c3ccccc3)n2)CN1C(=O)[C@@H](CC(=O)N1CCCCC1)C(C)(C)C)C(=O)NS(=O)(=O)C1CC1 [Compound 139, (2S,4R)-1-((S)-2-tert-butyl-4-oxo-4-(piperidin-1-yl)butanoyl)-N-((1R,2S)-1-(cyclopropyl-sulfonylcarbamoyl)-2-vinylcyclopropyl)-4-(4,5-diphenyl-2H-1,2,3-triazol-2-yl)pyrrolidine-2-carboxamide] | < 1
16 | C=C[C@@H]1C[C@]1(NC(=O)[C@@H]1C[C@@H](Oc2cc(-c3ccccc3)nc3cc(OC)ccc23)CN1C(=O)[C@@H](CC(=O)N1CCCC[C@H]1c1cccnc1)C(C)(C)C)C(=O)NS(=O)(=O)C1CC1 [Compound 140, (2S,4R)-1-((S)-2-tert-butyl-4-oxo-4-((S)-2-(pyridin-3-yl)piperidin-1-yl)butanoyl)-N-((1R,2S)-1-(cyclo-propylsulfonyl-carbamoyl)-2-vinylcyclopropyl)-4-(7-methoxy-2-phenylquinolin-4-yloxy)pyrrolidine-2-carboxamide] | < 1
17 | C=C[C@@H]1C[C@]1(NC(=O)[C@@H]1C[C@@H](Oc2cc(-c3ccccc3)nc3cc(OC)ccc23)CN1C(=O)[C@@H](CC(=O)N1CCCC(=O)C1)C(C)(C)C)C(=O)NS(=O)(=O)C1CC1 [Compound 141, (2S,4R)-1-((S)-2-tert-butyl-4-oxo-4-(3-oxopiperidin-1-yl)butanoyl)-N-((1R,2S)-1-(cyclo-propylsulfonyl-carbamoyl)-2-vinylcyclopropyl)-4-(7-methoxy-2-phenylquinolin-4-yloxy)pyrrolidine-2-carboxamide] | < 1
18 | C=C[C@@H]1C[C@]1(NC(=O)[C@@H]1C[C@@H](Oc2cc(-c3ccccc3)nc3cc(OC)ccc23)CN1C(=O)[C@@H](CC(=O)N1C(C(=O)O)CC2CCCCC21)C(C)(C)C)C(=O)NS(=O)(=O)C1CC1 (stereo partly drawn) [Compound 142, 1-((S)-3-((2S,4R)-2-((1R,2S)-1-(cyclo-propylsulfonyl-carbamoyl)-2-vinyl-cyclopropyl-carbamoyl)-4-(7-methoxy-2-phenylquinolin-4-yloxy)pyrrolidine-1-carbonyl)-4,4-dimethylpentano-yl)octahydro-1H-indole-2-carboxylic acid] | < 1
